From patent US20150045551A1, “FUSED AZOLE DERIVATIVE” (TAISHO PHARMACEUTICAL CO., LTD, priority 2012, published 2015)

Target: T1, Human V1b receptor (Homo sapiens, UniProt P47901)
T1 sequence (P47901 1-424): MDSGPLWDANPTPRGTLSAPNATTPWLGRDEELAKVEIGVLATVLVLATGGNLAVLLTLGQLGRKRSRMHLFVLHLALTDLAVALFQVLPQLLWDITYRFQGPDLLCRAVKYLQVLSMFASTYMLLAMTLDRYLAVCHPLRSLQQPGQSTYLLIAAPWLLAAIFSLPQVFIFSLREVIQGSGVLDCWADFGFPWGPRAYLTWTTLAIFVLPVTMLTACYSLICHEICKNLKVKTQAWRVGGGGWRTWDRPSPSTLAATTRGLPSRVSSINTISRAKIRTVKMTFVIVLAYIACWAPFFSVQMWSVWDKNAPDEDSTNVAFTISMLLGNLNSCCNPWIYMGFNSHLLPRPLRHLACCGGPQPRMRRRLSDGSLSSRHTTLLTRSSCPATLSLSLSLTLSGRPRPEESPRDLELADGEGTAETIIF
Test: Binding test for V1b receptor ([3H]AVP displacement, crude membrane preparation)
Parameters: expressed in transfected cells; host or cells: 293FT cells (transient expression)
Conditions: [3H]AVP 0.4 to 1 nmol/L; membranes of 293FT cells transiently expressing human V1b receptor; room temperature, 60 minutes
Description: Human V1b receptor was transiently expressed in 293FT cells, which were then recovered and homogenated in a 15 mmol/L tris-hydrochloric acid buffer (pH 7.4 and containing 2 mmol/L magnesium chloride, 0.3 mmol/L ethylenediaminetetracetic acid, and 1 mmol/L glycol ether diaminetetraacetic acid). The resulting homogenate was centrifuged at 50,000×g at 4 ° C. for 20 minutes. The precipitate was resuspended in a 75 mmol/L tris-hydrochloric acid buffer (pH 7.4 and containing 12.5 mmol/L magnesium chloride, 0.3 mmol/L ethylenediaminetetracetic acid, 1 mmol/L glycol ether diaminetetraacetic acid, and 250 mmol/L sucrose) to give a crude membrane preparation, which was stored at −80° C. until the binding test was initiated. In the binding test, the crude membrane preparation was diluted with a 50 mmol/L tris-hydrochloric acid buffer (pH 7.4 and containing 10 mmol/L magnesium chloride and 0.1% bovine serum albumin) and mixed with each test compound and [^3H]AVP (final concentration: 0.4 to 1 nmol/L), followed by incubation at room temperature for 60 minutes. The test compound was serially diluted with DMSO so that it would have final concentrations of 0.01 nmol/L to […] at the time of mixing. After the incubation, the mixture was suction filtered through a GF/C filter that was preliminarily impregnated with 0.3% polyethyleneimine. The GF/C filter was dried and after adding a scintillator, the residual radioactivity on the filter was measured using TopCount (PerkinElmer Inc.). The radioactivity in the presence of unlabeled AVP at 10 μmol/L was defined as 0%, and the radioactivity in the absence of unlabeled AVP was defined as 100%. A dose-response curve was plotted from radioactivities in the presence of a test compound at various concentrations, and the 50% inhibitory concentration (IC50 value) of the test compound was calculated.

Row | Compound | IC50
1 | COc1cc(-c2cc3cc(OCCCN4CCC(O)C4)ccc3n2CC(=O)NC(C)C)ccc1F (stereo not drawn) [Example B-14, 2-{2-(4-fluoro-3-methoxyphenyl)-5-[3-(3-hydroxypyrrolidin-1-yl)propoxy]-1H-indol-1-yl}-N-isopropyl acetamide] | 87.2 nM
2 | COc1cc(-c2cc3cc(OCCCN4CCC(O)CC4)ccc3n2CC(=O)NC(C)C)ccc1F [Example B-12, 2-{2-(4-fluoro-3-methoxyphenyl)-5-[3-(4-hydroxypiperidin-1-yl)propoxy]-1H-indol-1-yl}-N-isopropyl acetamide] | 45.3 nM
3 | CC(C)NC(=O)Cn1c(-c2cccc(Cl)c2)cc2nc(OCCCN3CCCCC3)ccc21 [Example B-22, 2-{2-(3-chlorophenyl)-5-[3-(piperidin-1-yl)propoxy]-1H-pyrrolo[3,2-b]pyridin-1-yl}-N-isopropyl acetamide] | 47.1 nM
4 | COc1cc(-c2cc3cc(OCCCN4CCC[C@H]4C)ccc3n2CC(=O)NC(C)C)ccc1F [Example B-16, 2-[2-(4-fluoro-3-methoxyphenyl)-5-{3-[(2R)-2-methylpyrrolidin-1-yl]propoxy}-1H-indol-1-yl]-N-isopropyl acetamide] | 166 nM
5 | CC(C)NC(=O)Cn1c(-c2cccc(Cl)c2)cc2cc(OCCCN3CCC(O)CC3)ccc21 [Example B-6, 2-{2-(3-chlorophenyl)-5-[3-(4-hydroxypiperidin-1-yl)propoxy]-1H-indol-1-yl}-N-isopropyl acetamide] | 18.4 nM
6 | COc1cncc(-c2cc3cc(OCCCN4CCCCC4)ccc3n2CC(=O)NC(C)C)c1 [Example B-19, N-isopropyl-2-{2-(5-methoxypyridin-3-yl)-5-[3-(piperidin-1-yl)propoxy]-1H-indol-1-yl}acetamide] | 387 nM
7 | CC(C)NC(=O)Cn1c(-c2ccc(F)c(Cl)c2)nc2cc(OCCCN3[C@@H]4CC[C@H]3COC4)ccc21 [Example A-16, 2-[2-(3-chloro-4-fluorophenyl)-5-{3-[(1R,5S)-3-oxa-8-azabicyclo[3.2.1]oct-8-yl]propoxy}-1H-benzimidazol-1-yl]-N-isopropyl acetamide] | 1.7 nM
8 | CC(C)NC(=O)Cn1c(-c2ccc(F)c(Cl)c2)nc2cc(N3CCCN(C)CC3)ccc21 [Example A-22, 2-[2-(3-chloro-4-fluorophenyl)-5-(4-methyl-1,4-diazepan-1-yl)-1H-benzimidazol-1-yl]-N-isopropyl acetamide] | 15.4 nM
9 | COc1cccc(-c2cc3cc(OCCCN4CCCCC4)ccc3n2CC(=O)NC(C)C)c1 [Example B-20, N-isopropyl-2-{2-(3-methoxyphenyl)-5-[3-(piperidin-1-yl)propoxy]-1H-indol-1-yl}acetamide] | 129 nM
